{"source": "paper PMC11921695", "about": "(BMC Cancer, 2025)", "key": {"[1]": {"test_system": "patients with HIV-associated KS", "experiment": "Phase I 3 + 3 dose escalation: dose limiting toxicity, MTD/RP2D", "type": "in vivo, human", "settings": "for occurrence of DLT: cycle 1", "method": "The trial used a standard 3 + 3 rule-based dose escalation algorithm with four pre-defined dose levels. […] A dose of 75 mg once daily (od) provided a dose level below the starting dose should de-escalation be required.\nThe aim of the phase I component of the trial was to determine the maximum tolerated dose (MTD) of selumetinib in combination with ART, which was defined as the highest dose producing one or fewer DLT in six patients. This dose was defined as the recommended phase II dose (RP2D) for the subsequent phase II component of the trial. Patients recruited to phase I who received the RP2D as their initial dose were included in the phase II population for response analysis. Having completed six cycles of treatment, patients who responded to treatment were permitted to continue selumetinib with ART at the discretion of the treating physician. Patients concurrently received best supportive therapy according to institutional guidelines.\nThe occurrence of DLTs was used to evaluate the safety of each dose level and thereby determine the MTD which defined the RP2D.\n• Haematological. • Absolute neutrophil count (ANC) < 1.0 × 10^9/L. • Febrile neutropenia (ANC < 1.0 × 10^9/L, fever ≥ 38 °C). • Platelets < 50 × 10^9/L. • Bleeding thought to be due to thrombocytopenia. • Non-haematological. • Diarrhoea ≥ grade 3 despite optimal loperamide use. • Rash ≥ grade 3. • Any grade 2 toxicity unacceptable to the patient that required a dose reduction. • Missing > 30% of treatment doses for toxicity reasons. • Any other grade 3 or 4 effects thought to be treatment related. • HIV control. • Clinically necessary change in ART drug levels due to detrimental alteration in HIV viral load and/or CD4 cell count."}, "[2]": {"test_system": "non-small cell lung cancer", "parameters": "method as in SCART protocol 7.3.1", "settings": "combination arm; ref SCART protocol 7.3.1; cited from earlier work"}, "[3]": {"test_system": "HIV-associated Kaposi sarcoma", "experiment": "Progression-free survival (Kaplan-Meier)", "type": "in vivo, human"}, "[4]": {"test_system": "patients with advanced cancer", "parameters": "method as in Banerji, et al.", "settings": "ref Banerji, et al., cited from earlier work"}, "[5]": {"test_system": "HIV-associated Kaposi sarcoma", "experiment": "Objective response by ACTG criteria", "type": "in vivo, human", "settings": "for objective response (OR) rate: 90% CI", "method": "For registered patients, pre-treatment evaluation included: physical examination, ophthalmologic exam, electrocardiogram (ECG), echocardiogram or multi-gated acquisition (MUGA) scan, chest x-ray and CT thorax, abdomen, and pelvis. Adverse events according to CTCAE version 4.0 [18] were recorded every three weeks. The burden of cutaneous disease was estimated by summed tumour area sizes (mm^2) from photographic image measurements and evaluated at baseline using ACTG criteria (Supplementary Appendix 3), with subsequent formal response assessments including clinical photographs taken every 6 weeks for 12 months or until disease progression. For patients with visceral or extensive disease, repeat CT scans at these time points were also performed.\nOR rate was reported as the proportion of patients who achieved OR out of the total per-protocol population, with 90% confidence intervals (CI). Sensitivity analyses were also performed to compare this OR rate with ones that used the MTD population and the any-dose population as the denominator. The OR rate was also calculated for those who received at least six cycles of selumetinib.\nThe absence of any detectable residual disease, including tumour-associated oedema, persisting for at least 4 weeks.\nA 50% or greater decrease in the number and/or size of previously existing lesions (skin, oral, measurable or evaluable visceral disease) lasting for at least 4 weeks without the appearance of new lesions or the appearance or worsening of tumour-associated oedema or effusions, […] of 25% or more in the product of bi-dimensional diameters of any indicator lesion.\nAny response not meeting the criteria for progression or PR."}, "CD4 cell counts": {"test_system": "CD4 cell counts", "experiment": "HIV control: CD4 cell counts", "type": "in vivo, human", "method": "HIV control was assessed by plotting longitudinal HIV-1 viral load and CD4 cell counts over time for the per-protocol population. Due to missing data at the pre-treatment cycle 1 […] visit, the CD4 cell counts from the screening visit were used as the baseline comparator. Paired t-tests were done to test the difference between CD4 cell counts at screening, cycle 3 day 22 and cycle 6 day 22. Due to multiple testing, a Bonferroni correction was applied to the significance threshold, calculated as 0.05 ÷ 2 = 0.025.\nHIV-1 viral load and CD4 counts were measured as per standard of care at hospital sites. To measure the concentration of angiogenesis markers, 8.5 ml blood was collected in BD vacutainer no-additive serum tubes. Samples were kept at room temperature for 30 minutes before centrifugation at 2000 g for 20 minutes at room temperature. Serum samples were then stored at -80 °C prior to analysis. Serum Ang-1, Ang-2 and TIE levels were assessed using commercial ELISAs (Thermo Fisher Scientifc hAng-1 (EHANGPT1), R&D DuoSet Ang-2 (DY623), eBioscience hTIE2 (BMS2042)), according to manufacturer instructions at laboratories at the University of Sheffield."}, "[6]": {"settings": "any dose/safety population, 16 patients"}, "[7]": {"settings": "per protocol population, 12 patients"}}, "note": "“And” between values parts separate entries of the source, which are not always exact repeats. Equal values may be shown once.", "data": [{"smiles": "Cn1cnc2c(F)c(Nc3ccc(Br)cc3Cl)c(C(=O)NOCCO)cc21", "note": "[selumetinib, 6-(4-Bromo-2-chloro-phenylamino)-7-fluro-3-methyl-3 H-benzoimidazole-5-carboxylic acid (2-hydroxy-ethoxy)-amide hydrogen sulphate]", "values": [{"measurement": "nature of the DLT", "setting": "[1]; 75 mg bd, single event, possibly related, resolved with no sequelae", "result": "asymptomatic concurrent increase in serum amylase and raised eosinophils, both grade 3"}, {"measurement": "occurrence of DLT", "setting": "[1]; four patients starting 50 mg bd", "result": "None"}, {"measurement": "maximum tolerated dose (MTD) / recommended phase II dose (RP2D)", "setting": "[1]; selumetinib orally in combination with ART, highest dose producing one or fewer DLT in six patients", "result": 75, "unit": "mg bd"}, {"measurement": "occurrence of DLT", "setting": "[1]; six phase I patients starting 75 mg bd", "result": "one and 1 out of 6"}, {"measurement": "febrile neutropenia CTCAE grade 3, patients", "setting": "[2]", "result": "6/44"}, {"measurement": "febrile neutropenia CTCAE grade 4, patients", "setting": "[2]", "result": "2/44"}, {"measurement": "3-month PFS (90% CI)", "setting": "[3]; MTD population, 15 patients", "result": "66%(42%,82%)"}, {"measurement": "6-month PFS (90% CI)", "setting": "[3]; MTD population, 15 patients", "result": "44% (22%, 64%)"}, {"measurement": "Median PFS in months (90% CI)", "setting": "[3]; MTD population, 15 patients", "result": "5.53 (2.53, 12.80) months"}, {"measurement": "3-month PFS (90% CI)", "setting": "[3]; [6]", "result": "62%(39%,78%)"}, {"measurement": "6-month PFS (90% CI)", "setting": "[3]; [6]", "result": "41% (21%, 61%)"}, {"measurement": "Median PFS in months (90% CI)", "setting": "[3]; [6]", "result": "4.14 (2.53, 12.80) months"}, {"measurement": "3-month PFS (90% CI)", "setting": "[3]; [7]", "result": "57%(31%,76%)"}, {"measurement": "Median PFS in months (90% CI)", "setting": "[3]; [7]", "result": "3.42 (1.74, -^$) months"}, {"measurement": "dose identified as both safe and tolerable", "setting": "[4]; selumetinib monotherapy", "result": 75, "unit": "mg bd"}, {"measurement": "mean decrease in left ventricular ejection fraction (LVEF)", "setting": "[4]; week 8, range -25% to +10%", "result": -7.2, "unit": "%"}, {"measurement": "objective response (OR) rate", "setting": "[5]; MTD population (sensitivity analysis)", "result": 6.7, "unit": "%"}, {"measurement": "objective response (OR) rate", "setting": "[5]; any-dose/safety population (sensitivity analysis)", "result": 6.3, "unit": "%"}, {"measurement": "clinical benefit rate (CR, PR and SD)", "setting": "[5]; any-dose/safety population, 16 patients", "result": 75, "unit": "%"}, {"measurement": "objective response (OR) rate", "setting": "[5]; per-protocol population, 12 patients, 75 mg bd + ART", "result": 8.3, "unit": "%"}, {"measurement": "response duration", "setting": "[5]; the only patient with PR (deepened to CR after discontinuing at 3 cycles)", "result": 201, "unit": "days"}, {"measurement": "mean increase in CD4 cell counts", "setting": "CD4 cell counts; cycle 3 day 22 vs screening, per-protocol population, 95% CI: 41.91, 280.63, p = 0.013", "result": 161.27, "unit": "cells/mm^3"}, {"measurement": "increase in CD4 cell counts", "setting": "CD4 cell counts; cycle 6 day 22 vs pre-treatment, 95% CI: 31.87, 273.47, p = 0.023", "result": 152.67, "unit": "cells/mm^3"}]}]}
